How the values were obtained:
[1] = test system: Gastric Acid Secretion Stimulated by Pentagastrin; experiment: Inhibition of pentagastrin-stimulated gastric acid secretion in anesthetized rats with perfused stomach, intravenous administration; assay type: in vivo, SD species rats; conditions: SD rats, urethane anesthesia, pentagastrin 15 µg/kg/hour i.v., test drug intravenous, dose 0.1 µmol/kg
Excerpt: (i) Method of Measurement: A cannula was inserted into a trachea of rats anesthetized with urethane (1.25 g/kg intraperitoneal administration) and abdomen was incised to expose stomach and duodenum. After ligating the cardiac portion, a polyethylene cannula was set in the forestomach portion. Further, a small incision was given to the duodenum, and a polyethylene cannula was inserted from the incised portion to a direction of the stomach inside. In order to fix the cannula, the pylorus portion was ligated. A physiological saline (adjusted to pH 7.0) was perfused from forestomach portion to the pylorus portion at a rate of 3 ml/minute. The gastric acid secretion was measured by continuously titrating the perfusate by means of a pH-stat (AUT-201, produced by Toa Electronics Ltd.). The continuous titration was performed by titrating with a 25 mM sodium hydroxide solution using a titration end point of pH 7.0. The results were determined as a gastric acid analysis at 10 minutes intervals (µEq/10 minutes). Then, pentagastrin was intravenously administered (15 µg/kg/hour). After injection of pentagastrin, the acid secretion was increased, and 60 minutes after the injection, the acid secretion reached to its maximum value and stabilized. Thereafter, a test drug was intravenously administered, and the gastric acid secretion was measured. From the gastric acid secretion amount after the test drug injection, a gastric acid secretion inhibitory ratio was calculated by taking the maximum value after the pentagastrin injection as 100%. In this test, two species of rats, i.e., Wistar species rats and SD species rats, were used as test animals, but the embodiments obtained by using the SD species rats are described below. The compounds of the present invention show from 9 to 89% gastric acid secretion inhibitory effects by the administration at a dose of 0.1 µmol/kg. The embodiments are shown below.

[2] = test system: Gastric Acid Secretion Stimulated by Pentagastrin; experiment: Inhibition of pentagastrin-stimulated gastric acid secretion in Heidenhain pouch dogs, oral administration; assay type: in vivo, beagle dogs; conditions: pentagastrin 8 µg/kg/hr infusion, test drug oral
Excerpt: (ii) Method of Measurement: Male beagle dogs (7 to 12 kg) fasted overnight was used and subjected to peritoneotomy under GOF anesthesia. After amputating the corpus ventriculi portion parallel to the curvatura ventriculi major, a metal pouch was retained in the suture-closed epigastric region to prepare Heidenhain pouch dogs. The dogs under healthy conditions after two months from the operation were presented to the experiments. Each of the pouch dogs was used at one week intervals.
Pentagastrin was continuously infused (8 µg/kg/hr) into 3 to 5 Heidenhain pouch dogs fasted for 18 hours, and the gastric juice naturally dropped from the pouch was collected at a 15 minute interval. The acid concentration in the gastric juice was calculated from the amount of a 0.05N NaOH required for titrating up to pH of 7.0 using an automatic titration apparatus (Comtite-7, produced by Hiranuma Sangyo), and the product with the amount of the gastric juice was referred to as an acid secretion amount.
Three hours after commencement of the continuous infusion of pentagastrin, a test drug was orally administered, and an inhibitory ratio to the gastric acid secretion at 15 minute intervals was determined to evaluate the effects of the drug.

CCK-B receptor = target: T1, CCK-B receptor (Rattus norvegicus, UniProt P30553); experiment: Binding activity to CCK-B receptor: displacement of [125I]BH.CCK-8 from rat whole brain membrane sample; parameters: species or system SD rats; conditions: rat brain membranes, [125I]BH.CCK-8, 25°C, 120 minutes; read-out: CCK-B Binding IC₅₀
T1 construct: freezed at -80°C for storage as a membrane sample; from tissue; host or cells: SD rat whole brain membrane preparation
T1 sequence (P30553 1-452): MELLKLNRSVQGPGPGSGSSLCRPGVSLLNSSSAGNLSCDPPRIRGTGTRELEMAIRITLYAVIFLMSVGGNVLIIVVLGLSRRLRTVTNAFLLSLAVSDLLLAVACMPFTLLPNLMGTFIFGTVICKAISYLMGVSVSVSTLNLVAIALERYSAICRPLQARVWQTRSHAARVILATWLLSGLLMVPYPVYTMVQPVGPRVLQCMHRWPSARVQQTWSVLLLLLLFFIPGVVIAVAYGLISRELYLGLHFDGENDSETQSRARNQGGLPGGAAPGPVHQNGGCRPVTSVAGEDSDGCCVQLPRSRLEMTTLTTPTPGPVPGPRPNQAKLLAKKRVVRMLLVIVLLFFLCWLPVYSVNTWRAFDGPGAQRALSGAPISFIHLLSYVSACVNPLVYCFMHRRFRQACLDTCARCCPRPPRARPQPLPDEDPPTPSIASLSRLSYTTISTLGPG
Description: About 100 conscious SD rats were sacrificed by decapitation, and immediately thereafter the whole brain was extracted. The whole brain was homogenized using a Teflon-glass homogenizer in a 0.32M sucrose aqueous solution in a volume of 10 times the whole brain. The resulting homogenate was centrifuged in a cooled centrifugator at 900 × g for 10 minutes, and the supernatant was further centrifuged at 11,500 × g for 15 minutes. The resulting sediment was suspended in a 0.08% Triton X-100 and a 50 mM Tris-HCl buffering solution (pH 7.4). After allowing the suspension to stand for 30 minutes, the suspension was again centrifuged at 11,500 × g for 15 minutes, and the sediment was washed twice with each of 5 mM and 50 mM Tris-HCl buffers by centrifuging operations. The resulting sediment was suspended in a 50 mM Tris-HCl buffer, and freezed at -80°C for storage as a membrane sample.
After thawing the membrane sample at room temperature, it was diluted with a 10 mM HEPES buffer (130 mM NaCl, 5 mM MgCl₂·1mM EGTA, 0.25 mg/ml bacitracin, pH 6.5) and, after incubating at 25°C for 120 minutes in the presence of [¹²⁵I]BH.CCK-8, B/F separation was performed by suction filtration. The non-specific binding was determined in the presence of 1 µM of CCK-8. The amount of the labelled ligand bonded to the receptor was measured by a γ-counter. A Ki (CCK-B) value was determined from a displacement curve of the test compound by taking the maximum binding amount of the labelled ligand to the receptor as 100%.

SMILES: Cc1ccc(C(=O)CN2C(=O)C(NC(=O)Nc3cccc(N(C)C)c3)N=C(c3ccccc3)c3ccccc32)cc1 (single isomer, unassigned; (+)) [Example 21, (+)-1-[2,3-Dihydro-1-(4'-methylphenacyl)-2-oxo-5-phenyl-1H-1,4-benzodiazepin-3-yl]-3-(3-dimethylaminophenyl)urea]
- Gastric Acid Secretion Inhibitory Ratio/Dose [1]: 74% (0.1 µmol/kg)
- Gastric Acid Secretion Inhibitory Ratio/Dose ([2]; dose 10 µmol/kg): 90% (10 µmol/kg)
- IC50 (CCK-B receptor): 160 pM

SMILES: Cc1ccccc1C(=O)CN1C(=O)[C@H](NC(=O)Nc2cccc(N(C)C)c2)N=C(c2ccccc2)c2ccccc21 [Example 3, (R)-1-[2,3-dihydro-1-(2'-methylphenacyl)-2-oxo-5-phenyl-1H-1,4-benzodiazepin-3-yl]-3-(3-dimethylaminophenyl)urea]
- Gastric Acid Secretion Inhibitory Ratio/Dose [1]: 63% (0.1 µmol/kg)
- Gastric Acid Secretion Inhibitory Ratio/Dose ([2]; dose 10 µmol/kg): 57% (10 µmol/kg)
- IC50 (CCK-B receptor): 170 pM

SMILES: Cc1ccc(C(=O)CN2C(=O)C(NC(=O)Nc3cccc(N(C)C)c3)N=C(c3ccccn3)c3ccccc32)cc1 (stereo not drawn) [Example 35, 1-[2,3-dihydro-1-(4'-methylphenacyl)-2-oxo-5-(2-pyridyl)-1H-1,4-benzodiazepin-3-yl]-3-(3-dimethylaminophenyl)urea]
- Gastric Acid Secretion Inhibitory Ratio/Dose [1]: 76% (0.1 µmol/kg)
- Gastric Acid Secretion Inhibitory Ratio/Dose ([2]; dose 1 µmol/kg): 83% (1 µmol/kg)
- IC50 (CCK-B receptor): 2140 pM

Reference: patent EP0647632A1, “NOVEL BENZ[…]” (YAMANOUCHI PHARMACEUTICAL CO. LTD., priority 1992, dated 1994)
